This is an account of results in patent US11510869B2, “Medical devices including medicaments and methods of making and using same including enhancing comfort, enhancing drug penetration, and treatment of myopia” (priority 2010, dated 2022).

In one data set the test system is myopia progression. The following applies: cited from earlier work; for Control of myopia progression / Side effects: 0.01% atropine eye drops.
Data set [1] is described as follows: Ink testing of HA loaded ink. Format: physicochemical. How it is done: Required amount of HA was directly added in an ink, followed by sonication for 15 minutes, thus providing HA in a polymer matrix.
In case of HA, which was HEMA monomer ink insoluble, its particulate form (without processing) is loaded in ink along with Tween 20, followed by sonication for 5 to 60 minutes.
The following table provides results of ink testing.

For data set [2] the following is noted: at therapeutic doses; cited from earlier work.
Setting [3] is: HA loaded ink, direct HA loading, 2% drug loading.

“Also recorded” adds a separate entry of the source. Read-outs that look alike come from different tables or passages of the source.

As to `CN1[C@@H]2CC[C@H]1C[C@@H](OC(=O)C(CO)c1ccccc1)C2` (stereo partly drawn) [Atropine], in the data set on myopia progression, the “Control of myopia progression” value is reported as “effective in reducing the progression of myopia” and the Side effects entry was “cycloplegia; also recorded: Photophobia; also recorded: elevation of intraocular pressures; also recorded: Risk of angle closure glaucoma”. Also, in the data set on myopia progression (listed as atropine), the “Control of myopia progression” value is listed as “ability to control the progress of myopia; also recorded: effective in controlling myopia progression” and the Side effects result is on record as “limited side effects; also recorded: minimal side effects”. In addition, the “Effect of discontinuation of atropine treatment” value in the data set on myopia progression (in some cases) is reported as “rebound of myopia progression”. The Progression of myopia entry in the data set on myopia progression (low dose atropine drops in combination with multifocal glasses) was “slow the progression of myopia”.
With Hyaluronic Acid [Hyaluronic Acid (HA)], in data set [1] (setting [3]), the “EST (mN/m)” value was 36.03 mN/m, the “Particle/globule size (nm)” value is 1227 nm, the “Viscosity (c.p.)” value is 12.6 c.p and the pH is given as 6. In addition, in data set [1] (HEMA monomer ink), the “Solubility in HEMA monomer ink” value is on record as “insoluble”.
In the case of `CCNC(=O)CCC/C=C\C[C@@H]1[C@@H](/C=C/[C@@H](O)CCc2ccccc2)[C@H](O)C[C@@H]1O` [Bimatoprost], the “Systemic or local toxicity” value in data set [2] is listed as “minimal systemic or local toxicity”.
